The data set in a line: Human HepG2 cell viability assay in 384 well format. Type of data set: toxicity, cell-based. More on the design: dose 125 nL, time 70.5 hour; concentration not given beside the values. Particulars: HepG2 cells, read-out: Inhibition.

With `CC(C)Oc1cccc(C(O)CNC(=O)NCc2cccs2)c1` (stereo not given), the cytotoxicity at 70.5 h worked out at 3.68%. Under `Cc1noc(C)c1CNC(=O)N1CCCC(C)CC1` (stereo not given) stands -3.6%; under `CNC(=O)CN1CCN(C(=O)Nc2ccc(Cl)cc2F)CC1`, -1.72%. Under `CCN(C(=O)C(C)C)C(c1cccnc1)c1ccc2c(c1)CCO2` (stereo not given) stands 18.4%; under `CCC(=O)N(CC)C(c1cccnc1)c1ccc2c(c1)CCO2` (stereo not given), -2.76%. Turning to `CCCC(=O)N(CC)C(c1cccnc1)c1ccc2c(c1)CCO2` (stereo not given), the cytotoxicity at 70.5 h was -4.67%.

In the case of `CN(Cc1nnc(C2CC2)n1C)C1CCN(CCc2ccncc2)C1` (stereo not given), the cytotoxicity at 70.5 h is -6%. Under `CC(C)c1nnc(CNCC2CCCN2c2cccnn2)o1` (stereo not given) stands -6.87%; under `c1cnnc(N2CCCC2CNCc2nnc(C3CC3)o2)c1` (stereo not given), -3.19%. `COc1c(CNCc2cccnc2N2CCOCC2)c(C)nn1C`: the cytotoxicity at 70.5 h came out at 1.9%. Take `N#Cc1ccccc1C(=O)Nc1cccc(CN2CCC(CO)CC2)c1`: the cytotoxicity at 70.5 h is -5.53%. Under `NC(=O)CSc1ccccc1NC(=O)C1CCCCC1` stands 28.8%; under `NC(=O)CSc1ccccc1NC(=O)CC1C=CCC1` (stereo not given), 27.1%. As for `CC(C)(C)CC(=O)Nc1ccccc1SCC(N)=O`, the cytotoxicity at 70.5 h is -3.84%. Under `CC(=O)NCCCSCCOc1cccc(C#N)c1` stands 2.91%. Under `CC(C)(O)CN1CCN(C(=O)COC2CCCCC2)CC1` stands 1.44%; under `c1csc(SCC2CN=C(N3CCOCC3)S2)c1` (stereo not given), -3.45%; under `Cc1ccc(CNC(=O)CN2CCN(CCO)CC2)s1`, -6.79%. Consider `Cc1ccc(C(O)CNC(=O)CCCc2ccccn2)o1` (stereo not given), for which the cytotoxicity at 70.5 h is -8.17%. `CN(CC(=O)N1CCCC1c1ccccn1)Cc1ccccc1` (stereo not given): the cytotoxicity at 70.5 h was -6.16%. Under `Cc1ccc(C(=O)N2CCOc3nc(C)ccc32)c(F)c1` stands 26.7%.

For `CNC(=O)COc1cccc(CNCc2c(C)noc2C)c1`, the cytotoxicity at 70.5 h is 10.2%. Under `CC(C)c1nnc(NC(=O)Cc2ccc(F)cc2)[nH]1` stands -13.1%; under `CNC(=O)COc1cccc(CNC(=O)c2c(C)noc2C)c1`, -10.6%; under `CN(Cc1ccc(Cl)s1)C(=O)CN1CC(n2cccn2)C1`, -14.6%. Next, `CSc1ccsc1C(=O)NS(=O)(=O)c1cnn(C)c1`: -15.6%; `CCc1cc(CNC(=O)Nc2cc(F)ccc2N2CCCCC2)on1`: -2.62%. As to `O=C(CN1CCSC2(CCCCC2)C1)NCC(F)(F)F`, the cytotoxicity at 70.5 h is -10.8%.

With `CSc1ccsc1C(=O)NS(=O)(=O)c1ccc(F)cc1`, the cytotoxicity at 70.5 h is -7.27%. In the case of `O=C(Nc1cc(CSCCO)ccn1)c1cc2ccccc2[nH]1`, the cytotoxicity at 70.5 h stood at 13.4%. Consider `CCOc1cccc(CCNC(=O)Cc2cccc(O)c2)n1`, for which the cytotoxicity at 70.5 h is -7.71%. With `CN(Cc1ccc([S+](C)[O-])cc1)c1ccc(Cl)cn1` (stereo not given), the cytotoxicity at 70.5 h was determined as 20.8%.

For `Cn1ncnc1CNC1CCc2cc(Cl)ccc21` (stereo not given), the cytotoxicity at 70.5 h was -19.7%. Under `Cn1ncnc1CNC1CCCc2cc(F)ccc21` (stereo not given) stands -11.4%.

As to `Cc1n[nH]cc1CNC(C(=O)N1CCOCC1)c1ccccc1` (stereo not given), the cytotoxicity at 70.5 h turned out to be 15.2%. Consider `Cc1noc(C)c1CC(=O)OCc1nc(N)c2ccccc2n1`, for which the cytotoxicity at 70.5 h was -3%. Under `Cc1cccc(C(C)(C)CNC(=O)CCSc2nnnn2C)c1` stands -2.6%; under `Cc1nc(-c2ccccc2)n(CC(=O)NC(C)C2CC2)n1` (stereo not given), -5.73%; under `Cc1nc(-c2ccccc2C)n(CC(=O)NC(C)C)n1`, 12.9%. Under `Cc1ccccc1C(C)(C)CNC(=O)CCSc1nnnn1C` stands -1.67%. Take `Cc1ccc(CNc2ccc(C(=O)N3CCNC(=O)C3)cn2)cc1`: the cytotoxicity at 70.5 h turned out to be 4.12%. As to `CC(C)n1cc(S(=O)(=O)NCCc2nnc3ccccn23)cn1`, the cytotoxicity at 70.5 h was determined as 5.41%. Under `COc1cccc(CNC(=O)Nc2ccc3[nH]nnc3c2)c1OC` stands -9.41%; under `O=S(=O)(NCCc1nnc2ccccn12)c1cccnc1`, 14.7%.

`N#Cc1ccc(N2CCN(c3cnccn3)CC2)c(C(F)(F)F)c1`: the cytotoxicity at 70.5 h turned out to be 2.94%. As for `Cn1cnnc1-c1cncc(NCc2cccc3c2OCO3)c1`, the cytotoxicity at 70.5 h is -1.67%.

Consider `Cc1cc(=O)c(C(=O)Nc2cccc(CCN3CCCC3)c2)c[nH]1`, for which the cytotoxicity at 70.5 h is -2.1%. On to `CC(=O)c1ccc(NC(=O)NCc2cccc(N(C)C)n2)cc1C`, for which the cytotoxicity at 70.5 h was -1.51%. With `O=S(=O)(c1cccnc1)N1CCC(OCCCc2ccccc2)C1` (stereo not given), the cytotoxicity at 70.5 h was -0.248%.

For the molecule `Cc1ccc(F)c(C(=O)Nc2cccc(CCN3CCCC3)c2)c1`, the cytotoxicity at 70.5 h is -1.18%. As to `Cc1ccc(S(=O)(=O)N2CCn3nc(C)nc3C2)c(Cl)c1`, the cytotoxicity at 70.5 h is -2.97%. Consider `C1CCN(CCOC2CCNCC2)C1`, for which the cytotoxicity at 70.5 h is -2.17%. Under `N#CCCN(Cc1cccnc1)C(=O)c1ccc(-n2cnnn2)cc1` stands -12.1%; under `Cn1cnnc1CNC(=O)C1CCCN(Cc2cccc(F)c2)C1` (stereo not given), -13.7%. Next, `O=C(Cn1nnc(-c2cc3ccccc3o2)n1)N1CCOCC1`: -18.1%; `O=C1CCC(C(=O)NCCOc2cccc(Cl)c2Cl)CN1` (stereo not given): -13.1%. `CC(C)CNC(=O)c1ccc(NC(=O)NC(C)C)cc1Cl`: the cytotoxicity at 70.5 h is -11.5%. With `Cc1nc(NC(=O)C2CCCN(C(=O)C3CC3)C2)sc1C` (stereo not given), the cytotoxicity at 70.5 h was -14.8%. Regarding `CNC(=O)Cn1nnc(-c2cc3ccccc3o2)n1`, the cytotoxicity at 70.5 h was -5.34%.

As for `O=C(CCc1ccc(F)cc1)NCc1ccnc(NC2CC2)c1`, the cytotoxicity at 70.5 h is -2.2%. Next, `Cc1ncc2c(n1)CCCC2NC(=O)c1ccccc1Cn1cncn1` (stereo not given): 18.1%; `CC(C)C(=O)NCCNC(=O)C12CCC(=O)N1c1cc(Cl)ccc1S2` (stereo not given): -1.8%; `Cc1cccc(N(CC(=O)N2CCCCC2)Cc2ccno2)c1`: -5.71%. Next, `OCCN(Cc1nc(-c2ccc3c(c2)OCO3)no1)CC1CC1`: 4.42%; `Cc1ncc(CNCC(=O)NCC(F)(F)F)n1-c1ccccc1`: -5.37%; `CC(C)C(=O)N1CCCN(C(=O)NC2CCc3ccccc3C2)CC1` (stereo not given): -4.48%. Under `COc1cccc(NC(=O)CNc2ccc(C(=O)N(C)C)c(Cl)c2)c1` stands -4.79%; under `CCOC(=O)Cn1ccc2cc(NC(=O)N3CCSCC3)ccc21`, 1.82%. Consider `Cc1csc(N2CCN(Cc3ccn(C)c(=O)c3)CC2)n1`, for which the cytotoxicity at 70.5 h was -5.98%. Next, `c1cnc(N2CCN(Cn3nccc3-c3cccnc3)CC2)nc1`: 5.37%.

`CC(C)(C)CCN1CCN(Cn2nccc2-c2cccnc2)CC1`: the cytotoxicity at 70.5 h was 0.907%. For `Cn1cc(CCCNC(=O)NC2CCN(c3ccccc3)C2=O)cn1` (stereo not given), the cytotoxicity at 70.5 h was -5.19%.

As for `CCc1ccc(C(=O)Nc2cc(N3CCNC3=O)ccc2Cl)o1`, the cytotoxicity at 70.5 h was -5.46%. Under `NCCNS(=O)(=O)Cc1ccc(Br)cc1` stands -0.385%; under `NCCCNS(=O)(=O)Cc1ccc(Br)cc1`, -9.57%.

The values are drawn from ChEMBL document CHEMBL3507680, “University of Dundee, Gates Library screen for HepG2 cell viability”.
